Some test systems named below: A498 renal; A549 NSCLC; EKVX NSCLC; HCC-2998 colon; HCT-116 colon; HL-60(TB) leukemia; MOLT-4 leukemia; NCI-H226 lung; SR leukemia; UO-31 renal.
Common to all, as to test: growth of human tumour cells (NCI), 48 h

This note sets out measurements from PubChem BioAssay (NCI).

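Where inhibition never reached the appropriate level, the endpoint shown equals the highest concentration tested. Otherwise, values were interpolated linearly from a five-concentration, 48-hour dose response in 96-well plates. Here, GI50 denotes the concentration required for 50% inhibition of growth. The concentration for full growth arrest is given as TGI.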

Turning to `CC1CCc2c(c(CC3CC(=O)NC(=O)C3)nn2-c2ccccc2)C1` (stereo not given), the TGI with A498 renal, in the assay on A549 NSCLC, in the assay with EKVX NSCLC, with HCC-2998 colon, with HCT-116 colon and in the assay with HL-60(TB) leukemia was above 100 µM each time. Moreover, the TGI in the assay with MOLT-4 leukemia, in the assay on NCI-H226 lung, in the assay on SR leukemia and with UO-31 renal was above 100 µM each time.

`C/C(CCn1[nH]c(=O)ccc1=O)=N\Nc1ccc([N+](=O)[O-])cc1[N+](=O)[O-]`: the TGI in the assay on A498 renal, in the assay with A549 NSCLC, in the assay on EKVX NSCLC, with HCC-2998 colon, with HCT-116 colon and in the assay with HL-60(TB) leukemia was above 100 µM in each case. Besides, the TGI in the assay with MOLT-4 leukemia, in the assay on NCI-H226 lung, with SR leukemia and with UO-31 renal was above 100 µM in each case.

For the compound `CCOC(=O)c1c2cccccc2n2c(=O)cc(C)nc12`, the TGI with A498 renal, in the assay with A549 NSCLC, in the assay on EKVX NSCLC, in the assay on HCC-2998 colon, in the assay on HL-60(TB) leukemia and in the assay on MOLT-4 leukemia was above 100 µM throughout. Moreover, the TGI in the assay on NCI-H226 lung, with SR leukemia and with UO-31 renal was above 100 µM in each case.

For the compound `COc1ccc(-c2nc(-c3cnccn3)n(COCCO)n2)cc1`, the TGI in the assay with A549 NSCLC, with HCC-2998 colon, with HCT-116 colon, in the assay with HL-60(TB) leukemia, with MOLT-4 leukemia and with SR leukemia was above 100 µM each time. This compound displayed a TGI with UO-31 renal above 100 µM.

As for `COc1cc2ncn(-c3cc(OCc4ccccc4C(F)(F)F)c(C(C)=O)s3)c2cc1OC`, the GI50 is 4.1 µM in the assay on A498 renal; above 25 µM in the assay with A549 NSCLC; above 25 µM in the assay on EKVX NSCLC; above 25 µM in the assay on HCC-2998 colon; above 25 µM in the assay with HCT-116 colon; above 25 µM with HL-60(TB) leukemia. In addition, the GI50 in the assay on MOLT-4 leukemia, with NCI-H226 lung, in the assay on SR leukemia and in the assay on UO-31 renal was above 25 µM throughout. Besides, the TGI in the assay with A498 renal was 17.2 µM; with A549 NSCLC it was above 25 µM; in the assay with EKVX NSCLC, above 25 µM; in the assay with HCC-2998 colon, above 25 µM; in the assay with HCT-116 colon, above 25 µM; in the assay on HL-60(TB) leukemia, above 25 µM. For the same compound, the TGI with MOLT-4 leukemia, in the assay on NCI-H226 lung, in the assay with SR leukemia and in the assay on UO-31 renal was above 25 µM each time.

Regarding `Nc1ccc2c(c1)Oc1c(F)c(F)cc3c(=O)c(C(=O)O)cn-2c13`, the TGI was 49.7 µM in the assay on A498 renal; above 100 µM with A549 NSCLC; above 100 µM in the assay on EKVX NSCLC; above 100 µM in the assay with HCC-2998 colon; above 100 µM in the assay on HCT-116 colon; above 100 µM in the assay with HL-60(TB) leukemia. Further, the TGI with MOLT-4 leukemia was above 100 µM; with SR leukemia, above 100 µM; with UO-31 renal, 93.7 µM.

Take `CC1=NN(C(=O)c2ccncc2)C(=O)C1N=Nc1ccc2ccccc2c1` (stereo not given): the TGI with A498 renal was above 100 µM; in the assay on A549 NSCLC, above 100 µM; with EKVX NSCLC, above 100 µM; in the assay on HCC-2998 colon it was 15.2 µM; with HCT-116 colon, above 100 µM; in the assay with HL-60(TB) leukemia it was above 20.6 µM. Also, the TGI with MOLT-4 leukemia was above 38.1 µM; in the assay on NCI-H226 lung, above 100 µM; with SR leukemia, above 31.7 µM; with UO-31 renal it was above 100 µM.

As to `CCOC(=O)c1cc(-c2ccc(OC)c(OC)c2)[nH]c1N/N=C/c1c(Cl)cccc1Cl`, the GI50 is 1.03 µM with A498 renal; 3.06 µM in the assay with A549 NSCLC; 5.37 µM in the assay on EKVX NSCLC; 0.668 µM with HCC-2998 colon; 1.39 µM in the assay on HCT-116 colon; 1.86 µM in the assay with HL-60(TB) leukemia. The GI50 in the assay on MOLT-4 leukemia was 3.27 µM; with NCI-H226 lung it was 1.81 µM; with SR leukemia, 0.41 µM; with UO-31 renal it was 4.32 µM. In addition, the TGI with A498 renal is 7.77 µM; with A549 NSCLC it was above 100 µM; in the assay on EKVX NSCLC, 19.9 µM; in the assay on HCC-2998 colon it was 4.38 µM; with HCT-116 colon, 5.44 µM; with HL-60(TB) leukemia, 6.15 µM. For the same compound, the TGI is above 80.9 µM in the assay on MOLT-4 leukemia, 9.36 µM with NCI-H226 lung, 1.93 µM in the assay on SR leukemia and 37.6 µM in the assay on UO-31 renal.

For the compound `C1CCN2CC3CCCN4CCCC(C2C1)C34` (stereo not given), the TGI with A498 renal, in the assay with A549 NSCLC, in the assay on EKVX NSCLC, in the assay with HCC-2998 colon, in the assay with HCT-116 colon and with HL-60(TB) leukemia was above 100 µM in each case. The TGI in the assay with MOLT-4 leukemia, with NCI-H226 lung and with SR leukemia was above 100 µM in each case.

As for `OC1CCC[C@@H]1Sc1ccccc1` (stereo not given in full), the TGI with A498 renal, with A549 NSCLC, with EKVX NSCLC, in the assay on HCC-2998 colon, with HCT-116 colon and in the assay with HL-60(TB) leukemia was above 100 µM throughout. For the same compound, the TGI in the assay on MOLT-4 leukemia, in the assay with SR leukemia and with UO-31 renal was above 100 µM throughout.

Regarding `COC(=O)C(C(=O)C(=O)Nc1ccc(OC)cc1[N+](=O)[O-])c1nc2cc(C)c(C)cc2[nH]c1=O` (stereo not given), the TGI in the assay with A498 renal, in the assay with A549 NSCLC, in the assay with EKVX NSCLC, with HCC-2998 colon, in the assay with HCT-116 colon and in the assay on HL-60(TB) leukemia was above 100 µM each time. Further, the TGI in the assay with NCI-H226 lung, in the assay with SR leukemia and in the assay on UO-31 renal was above 100 µM throughout.

With `O=C(c1ccccc1)c1c(CC(O)c2ccccc2)n(C(=O)c2ccccc2)c2ccccc12` (stereo not given), the TGI in the assay on A549 NSCLC is above 100 µM; in the assay with HCC-2998 colon it was above 100 µM; in the assay on HCT-116 colon it was above 100 µM; in the assay with HL-60(TB) leukemia, above 100 µM; in the assay with MOLT-4 leukemia it was 54.4 µM; in the assay on NCI-H226 lung it was above 100 µM. In addition, the TGI in the assay on SR leukemia was 72.8 µM; in the assay on UO-31 renal, 60.6 µM.
